Measured values published in patent publication US9216999B2, “Substituted pyrrolo[2,3-h][1,6]naphthyridines and compositions thereof as JAK inhibitors” (priority 2011, dated 2015).
Where two headings read alike, the source gives them in different places.

Key:
Type in all cases: biochemical
[1] = molecular target: JAK3 (Homo sapiens (Human), UniProt P52333); assay: Enzyme assay (Assay Example^a 1), JAK3
[2] = molecular target: JAK1 (Homo sapiens (Human), UniProt P23458); assay: Enzyme assay (Assay Example^a 1), JAK1; conditions: ATP 100 μM
[3] = molecular target: JAK2 (Homo sapiens (Human), UniProt O60674); assay: Enzyme assay (Assay Example^a 1), JAK2
[4] = molecular target: Tyk2 (Homo sapiens (Human), UniProt P29597); assay: Enzyme assay (Assay Example^a 1), Tyk2; conditions: ATP 100 μM
Sequence of Tyk2 (P29597 whole entry): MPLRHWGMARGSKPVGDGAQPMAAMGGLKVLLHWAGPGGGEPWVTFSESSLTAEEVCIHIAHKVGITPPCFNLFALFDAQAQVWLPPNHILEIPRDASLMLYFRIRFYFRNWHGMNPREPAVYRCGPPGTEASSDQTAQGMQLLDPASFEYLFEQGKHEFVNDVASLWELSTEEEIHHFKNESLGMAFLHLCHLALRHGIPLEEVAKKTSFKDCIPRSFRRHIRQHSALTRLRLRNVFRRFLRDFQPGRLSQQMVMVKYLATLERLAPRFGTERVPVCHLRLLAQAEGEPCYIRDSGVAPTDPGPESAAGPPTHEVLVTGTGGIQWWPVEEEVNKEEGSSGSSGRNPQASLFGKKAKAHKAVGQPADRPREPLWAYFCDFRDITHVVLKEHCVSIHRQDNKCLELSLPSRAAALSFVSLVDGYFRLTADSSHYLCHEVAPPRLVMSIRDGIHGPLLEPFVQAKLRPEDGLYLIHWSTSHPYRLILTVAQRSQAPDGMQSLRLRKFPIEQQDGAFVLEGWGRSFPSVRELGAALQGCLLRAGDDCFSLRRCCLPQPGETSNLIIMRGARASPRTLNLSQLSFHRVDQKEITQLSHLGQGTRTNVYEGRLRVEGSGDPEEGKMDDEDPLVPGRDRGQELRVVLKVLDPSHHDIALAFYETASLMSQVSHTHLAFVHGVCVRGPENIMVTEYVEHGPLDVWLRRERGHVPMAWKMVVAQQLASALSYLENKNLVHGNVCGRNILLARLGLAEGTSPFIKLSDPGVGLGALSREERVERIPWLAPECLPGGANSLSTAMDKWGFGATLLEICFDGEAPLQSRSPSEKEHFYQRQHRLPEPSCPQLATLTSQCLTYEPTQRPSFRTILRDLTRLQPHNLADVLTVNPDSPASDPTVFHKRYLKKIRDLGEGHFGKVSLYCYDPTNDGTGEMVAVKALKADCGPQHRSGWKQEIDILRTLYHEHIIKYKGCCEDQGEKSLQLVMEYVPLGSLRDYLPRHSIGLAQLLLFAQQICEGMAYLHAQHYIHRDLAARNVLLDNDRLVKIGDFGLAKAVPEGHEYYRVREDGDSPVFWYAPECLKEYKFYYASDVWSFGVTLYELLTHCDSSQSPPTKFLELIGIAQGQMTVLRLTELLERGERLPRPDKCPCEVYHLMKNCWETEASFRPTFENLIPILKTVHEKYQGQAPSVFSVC

Sequence of JAK3 (P52333 whole entry): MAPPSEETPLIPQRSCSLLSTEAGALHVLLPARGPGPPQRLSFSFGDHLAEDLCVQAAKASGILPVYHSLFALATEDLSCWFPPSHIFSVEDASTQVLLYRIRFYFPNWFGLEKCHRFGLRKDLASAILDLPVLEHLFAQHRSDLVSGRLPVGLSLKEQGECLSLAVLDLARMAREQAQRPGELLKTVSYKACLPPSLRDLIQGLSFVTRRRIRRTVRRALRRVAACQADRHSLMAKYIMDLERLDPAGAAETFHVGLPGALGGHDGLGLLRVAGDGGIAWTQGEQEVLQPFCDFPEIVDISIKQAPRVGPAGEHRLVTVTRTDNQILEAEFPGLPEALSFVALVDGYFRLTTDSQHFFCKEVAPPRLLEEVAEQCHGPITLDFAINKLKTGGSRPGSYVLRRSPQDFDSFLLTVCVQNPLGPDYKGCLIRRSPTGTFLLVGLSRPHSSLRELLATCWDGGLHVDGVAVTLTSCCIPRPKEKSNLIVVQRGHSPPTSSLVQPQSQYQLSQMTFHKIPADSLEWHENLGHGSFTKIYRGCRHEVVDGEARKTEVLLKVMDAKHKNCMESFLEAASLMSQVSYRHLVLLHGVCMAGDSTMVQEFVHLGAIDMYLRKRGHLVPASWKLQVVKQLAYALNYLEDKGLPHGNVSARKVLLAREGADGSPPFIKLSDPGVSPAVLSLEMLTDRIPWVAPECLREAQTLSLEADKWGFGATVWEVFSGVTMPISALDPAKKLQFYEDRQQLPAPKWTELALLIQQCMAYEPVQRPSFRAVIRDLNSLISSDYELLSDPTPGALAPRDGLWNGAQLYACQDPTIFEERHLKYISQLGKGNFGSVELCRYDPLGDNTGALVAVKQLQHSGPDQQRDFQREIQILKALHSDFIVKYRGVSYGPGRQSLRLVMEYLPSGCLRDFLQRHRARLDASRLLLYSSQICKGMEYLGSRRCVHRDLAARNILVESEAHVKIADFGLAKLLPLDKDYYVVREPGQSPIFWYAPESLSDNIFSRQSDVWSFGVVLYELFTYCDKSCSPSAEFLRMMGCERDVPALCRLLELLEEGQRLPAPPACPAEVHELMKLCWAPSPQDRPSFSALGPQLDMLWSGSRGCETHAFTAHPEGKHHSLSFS

| Structure (SMILES) | IC50 ([1]; ATP 100 μM) [µM] | IC50 [2] [µM] | IC50 ([3]; ATP 100 μM) [µM] | IC50 [4] [µM] | IC50 ([2]; Table^a 154) [µM] | IC50 ([3]; ATP 100 μM, Table^a 154) [µM] | IC50 ([4]; Table^a 154) [µM] | IC50 ([1]; ATP 100 μM, Table^a 154) [µM] | IC50 [1] [µM] | IC50 [3] [µM] |
| --- | --- | --- | --- | --- | --- | --- | --- | --- | --- | --- |
| O[C@H]1Cc2ccccc2[C@H]1NC1CCC(c2nnn3cnc4[nH]ccc4c23)CC1 (mixture of isomers) [compound 378, (1R,2S)-1-{[4-(7H-pyrrolo[3,2-e][1,2,3]triazolo[1,5-c]pyrimidin-1-yl)cyclohexyl]amino}-2,3-dihydro-1H-inden-2-ol] | 0.41 | 0.004 | 0.071 | 0.2 |  |  |  |  |  |  |
| O[C@@H]1Cc2ccccc2[C@@H]1NC1CCC(c2nnn3cnc4[nH]ccc4c23)CC1 (mixture of isomers) [compound 379, (1S,2R)-1-{[4-(7H-pyrrolo[3,2-e][1,2,3]triazolo[1,5-c]pyrimidin-1-yl)cyclohexyl]amino}-2,3-dihydro-1H-inden-2-ol] | 0.66 | 0.013 | 0.11 | 0.29 |  |  |  |  |  |  |
| OC(CN[C@H]1CC[C@H](c2nnn3cnc4[nH]ccc4c23)CC1)(c1ccc(Cl)cc1)C(F)(F)F (mixture of isomers) [199b, 3-((trans-4-(7H-pyrrolo[3,2-e][1,2,3]triazolo[1,5-c]pyrimidin-1-yl)cyclohexyl)amino)-2-(4-chlorophenyl)-1,1,1-trifluoropropan-2-ol] |  |  |  |  | 0.0035 | 0.035 | 0.44 |  |  |  |
| OC(CN[C@H]1CC[C@H](c2nnn3cnc4[nH]ccc4c23)CC1)(c1ccc(F)cc1)C(F)(F)F (mixture of isomers) [200b, 3-{[trans-4-(7H-pyrrolo[3,2-e][1,2,3]triazolo[1,5-c]pyrimidin-1-yl)cyclohexyl]amino}-1,1,1-trifluoro-2-(4-fluorophenyl)propan-2-ol] |  |  |  |  | 0.0025 | 0.032 | 0.24 |  |  |  |
| O=C(OCc1ccccc1)N1CCCC(c2nnn3cnc4[nH]ccc4c23)C1 (racemic) [compound 14] |  |  |  |  | 0.021 | 0.11 | 2.2 |  |  |  |
| O=C(CC(F)(F)F)N1CCCC(c2nnn3cnc4[nH]ccc4c23)C1 (racemic) [compound 17] |  |  |  |  | 0.029 | 0.076 | 0.57 | 2.1 |  |  |
| Cc1cc(NC(=O)N2CCCC(c3nnn4cnc5[nH]ccc5c34)C2)sn1 (racemic) [compound 21] |  |  |  |  | 0.015 | 0.11 | 0.71 | 0.9 |  |  |
| CC(NC[C@H]1CC[C@H](c2nnn3cnc4[nH]ccc4c23)CC1)c1ccc(F)c(F)c1 (mixture of isomers) [compound 109] |  |  |  |  | 0.0016 | 0.011 | 0.072 | 0.16 |  |  |
| OC(CNC[C@H]1CC[C@H](c2nnn3cnc4[nH]ccc4c23)CC1)(c1ccccc1)C(F)(F)F (mixture of isomers) [compound 172, 3-({[trans-4-(7H-pyrrolo[3,2-e][1,2,3]triazolo[1,5-c]pyrimidin-1-yl)cyclohexyl]methyl}amino)-1,1,1-trifluoro-2-phenylpropan-2-ol] |  |  |  |  | 0.013 | 0.093 | 0.63 |  |  |  |
| Fc1ccc([C@@H]2C[C@H]2CN[C@H]2CC[C@H](c3nnn4cnc5[nH]ccc5c34)CC2)cc1 (relative stereo) [389b, trans-N-{[trans-2-(4-fluorophenyl)cyclopropyl]methyl}-4-(7H-pyrrolo[3,2-e][1,2,3]triazolo[1,5-c]pyrimidin-1-yl)cyclohexanamine] | > 1 | 0.0079 | 0.14 | 0.67 |  |  |  |  |  |  |
| O[C@H]1CCCC[C@H]1CNC[C@H]1CC[C@H](c2nnn3cnc4[nH]ccc4c23)CC1 (relative stereo) [compound 312, cis-2-[({[trans-4-(7H-pyrrolo[3,2-e][1,2,3]triazolo[1,5-c]pyrimidin-1-yl)cyclohexyl]methyl}amino)methyl]cyclohexanol] | > 1 | 0.012 | 0.045 | 0.37 |  |  |  |  |  |  |
| FC(F)(F)C1CCC(N2CCC(c3nnn4cnc5[nH]ccc5c34)CC2)CC1 (single isomer, unassigned) [56a] |  |  |  |  | 0.5 | > 1 | > 1 | > 1 |  |  |
| FC(F)(F)C1CCC(N2CCC(c3nnn4cnc5[nH]ccc5c34)CC2)CC1 (single isomer, unassigned) [56b] |  |  |  |  | 0.035 | 0.6 | > 1 | > 1 |  |  |
| c1ccc(CCCN[C@H]2CC[C@@H](c3nnn4cnc5[nH]ccc5c34)CC2)cc1 [136a] |  |  |  |  | 0.14 | > 1 | > 1 | > 1 |  |  |
| c1ccc(CCCN[C@H]2CC[C@H](c3nnn4cnc5[nH]ccc5c34)CC2)cc1 [136b] |  |  |  |  | 0.016 | 0.29 | 0.45 | > 1 |  |  |
| N#Cc1ccc(CN[C@H]2CC[C@@H](c3nnn4cnc5[nH]ccc5c34)CC2)cc1 [137a] |  |  |  |  | 0.032 | 0.49 | 0.31 | > 1 |  |  |
| N#Cc1ccc(CN[C@H]2CC[C@H](c3nnn4cnc5[nH]ccc5c34)CC2)cc1 [137b] |  |  |  |  | 0.0041 | 0.039 | 0.088 | 0.38 |  |  |

| Structure (SMILES) | IC50 ([1]; ATP 100 μM) [µM] | IC50 [2] [µM] | IC50 ([3]; ATP 100 μM) [µM] | IC50 [4] [µM] | IC50 ([2]; Table^a 154) [µM] | IC50 ([3]; ATP 100 μM, Table^a 154) [µM] | IC50 ([4]; Table^a 154) [µM] | IC50 ([1]; ATP 100 μM, Table^a 154) [µM] | IC50 [1] [µM] | IC50 [3] [µM] |
| --- | --- | --- | --- | --- | --- | --- | --- | --- | --- | --- |
| FC(F)(F)c1ccc(CN[C@H]2CC[C@@H](c3nnn4cnc5[nH]ccc5c34)CC2)cc1 [138a] |  |  |  |  | 0.023 | 0.74 | 0.25 | > 1 |  |  |
| FC(F)(F)c1ccc(CN[C@H]2CC[C@H](c3nnn4cnc5[nH]ccc5c34)CC2)cc1 [138b] |  |  |  |  | 0.0043 | 0.043 | 0.046 | 0.4 |  |  |
| c1cc2c(ncn3nnc([C@H]4CC[C@@H](NN5CCOCC5)CC4)c23)[nH]1 [139a] |  |  |  |  | 0.26 | 0.4 | > 1 | 0.43 |  |  |
| c1cc2c(ncn3nnc([C@H]4CC[C@H](NN5CCOCC5)CC4)c23)[nH]1 [139b] |  |  |  |  | 0.021 | 0.076 | 0.5 | > 1 |  |  |
| c1ccc(CN[C@H]2CC[C@@H](c3nnn4cnc5[nH]ccc5c34)CC2)cc1 [194a, cis-N-benzyl-4-(7H-pyrrolo[3,2-e][1,2,3]triazolo[1,5-c]pyrimidin-1-yl)cyclohexanamine] |  |  |  |  | 0.032 | 0.74 | 0.33 | > 1 |  |  |
| c1ccc(CN[C@H]2CC[C@H](c3nnn4cnc5[nH]ccc5c34)CC2)cc1 [194b, trans-N-benzyl-4-(7H-pyrrolo[3,2-e][1,2,3]triazolo[1,5-c]pyrimidin-1-yl)cyclohexanamine] |  |  |  |  | 0.0084 | 0.046 | 0.11 | 0.5 |  |  |
| Fc1ccc(CN[C@H]2CC[C@@H](c3nnn4cnc5[nH]ccc5c34)CC2)cc1 [195a, cis-N-(4-fluorobenzyl)-4-(7H-pyrrolo[3,2-e][1,2,3]triazolo[1,5-c]pyrimidin-1-yl)cyclohexanamine] |  |  |  |  | 0.03 | 0.55 | 0.31 | > 1 |  |  |
| Fc1ccc(CN[C@H]2CC[C@H](c3nnn4cnc5[nH]ccc5c34)CC2)cc1 [195b, trans-N-(4-fluorobenzyl)-4-(7H-pyrrolo[3,2-e][1,2,3]triazolo[1,5-c]pyrimidin-1-yl)cyclohexanamine] |  |  |  |  | 0.007 | 0.042 | 0.12 | 0.56 |  |  |
| Clc1ccc(CCN[C@H]2CC[C@H](c3nnn4cnc5[nH]ccc5c34)CC2)cc1 [198b, trans-N-(4-chlorophenethyl)-4-(7H-pyrrolo[3,2-e][1,2,3]triazolo[1,5-c]pyrimidin-1-yl)cyclohexanamine] |  |  |  |  | 0.0025 | 0.037 | 0.065 | 0.4 |  |  |
| Fc1ccc(CCN[C@H]2CC[C@H](c3nnn4cnc5[nH]ccc5c34)CC2)cc1 [201b, trans-N-(4-fluorophenethyl)-4-(7H-pyrrolo[3,2-e][1,2,3]triazolo[1,5-c]pyrimidin-1-yl)cyclohexanamine] |  |  |  |  | 0.0039 | 0.066 | 0.1 | 0.41 |  |  |
| FC(F)(Br)CN[C@H]1CC[C@@H](c2nnn3cnc4[nH]ccc4c23)CC1 [382a, cis-N-(2-bromo-2,2-difluoroethyl)-4-(7H-pyrrolo[3,2-e][1,2,3]triazolo[1,5-c]pyrimidin-1-yl)cyclohexanamine] |  | 0.015 |  | 0.76 |  |  |  |  | 0.75 | 0.063 |
| FC(F)(Br)CN[C@H]1CC[C@H](c2nnn3cnc4[nH]ccc4c23)CC1 [382b, trans-N-(2-bromo-2,2-difluoroethyl)-4-(7H-pyrrolo[3,2-e][1,2,3]triazolo[1,5-c]pyrimidin-1-yl)cyclohexanamine] |  | 0.00031 |  | 0.013 |  |  |  |  | 0.07 | 0.0028 |
| FC(F)(F)C(F)(F)CN[C@H]1CC[C@@H](c2nnn3cnc4[nH]ccc4c23)CC1 [383a, cis-N-(2,2,3,3,3-pentafluoropropyl)-4-(7H-pyrrolo[3,2-e][1,2,3]triazolo[1,5-c]pyrimidin-1-yl)cyclohexanamine] | > 1 | 0.09 | 0.37 | > 1 |  |  |  |  |  |  |
| FC1(F)CCC(c2nnn3cnc4[nH]ccc4c23)CC1 [compound 64] |  |  |  |  | 0.033 | 0.12 | 0.31 |  |  |  |
| c1cc2c(ncn3nnc(C4CCCCCC4)c23)[nH]1 [compound 66] |  |  |  |  | 0.0033 | 0.013 | 0.027 |  |  |  |
| N#Cc1ccc(NC[C@H]2CC[C@H](c3nnn4cnc5[nH]ccc5c34)CC2)cc1Cl [compound 247, 4-({[trans-4-(7H-pyrrolo[3,2-e][1,2,3]triazolo[1,5-c]pyrimidin-1-yl)cyclohexyl]methyl}amino)-2-chlorobenzonitrile] |  | 0.013 | 0.09 | > 1 |  |  |  |  |  |  |
| O=S(=O)(C[C@H]1CC[C@H](c2nnn3cnc4[nH]ccc4c23)CC1)c1ccccc1 [compound 364, 1-{trans-4-[(phenylsulfonyl)methyl]cyclohexyl}-7H-pyrrolo[3,2-e][1,2,3]triazolo[1,5-c]pyrimidine] |  | 0.0057 | 0.011 |  |  |  |  |  |  |  |
